Each structure is given as a SMILES string.

The subject of one assay is human σ1 receptor and human μ-opioid receptor. Description: μ and σ1 dual binding: human σ1 receptor radioligand assay ([3H](+)-pentazocine, transfected HEK-293 membranes) and human μ-opioid receptor radioligand assay ([3H]-DAMGO, transfected CHO-K1 membranes). Further details: key to μ and σ1 dual binding: +: Both Ki-μ and Ki-σ1>=500 nM; ++: One Ki<500 nM while the other Ki is >=500 nM; +++: Both Ki-μ and Ki-σ1<500 nM; ++++: Both Ki-μ and Ki-σ1<100 nM.
Conditions: not given
In the case of `Cn1nccc1C(c1ccccc1)N1CCN(CCc2ccncc2)CC1` (stereo not shown) [Example 37, 1-((1-methyl-1H-pyrazol-5-yl)(phenyl)methyl)-4-(2-(pyridin-4-yl)ethyl)piperazine], the “μ and σ1 dual binding” value is recorded as “++”.

As for `COc1cccc(CCN2CCN(C(c3ccccc3)c3ccnn3C)CC2)c1` (stereo not shown) [Example 21, 1-(3-Methoxyphenethyl)-4-((1-methyl-1H-pyrazol-5-yl)(phenyl)methyl)piperazine], the Ki – broadly, a dissociation constant, usually derived from enzyme kinetics or from competition with a known ligand – was less than 500 nM.

Regarding `Cn1nccc1C(c1ccc(F)cn1)N1CCN(CCc2cccc(O)c2)CC1` (stereo not shown) [Example 31, 3-(2-(4-((5-fluoropyridin-2-yl)(1-methyl-1H-pyrazol-5-yl)methyl)piperazin-1-yl)ethyl)phenol], the “μ and σ1 dual binding” value is “++”.

`Cn1nccc1C(c1ccccc1)N1CCN(CCc2ccc(F)cc2)CC1` (stereo not shown) [Example 23, 1-(4-fluorophenethyl)-4-((1-methyl-1H-pyrazol-5-yl)(phenyl)methyl)piperazine]: the “μ and σ1 dual binding” value is listed as “++”.

On to `Cn1nccc1C(c1ccncc1)N1CCN(CCc2ccccc2)CC1` (stereo not shown) [Example 20, 1-((1-methyl-1H-pyrazol-5-yl)(pyridin-4-yl)methyl)-4-phenethylpiperazine], for which the “μ and σ1 dual binding” value is “++”.

Consider `Cn1nccc1C(c1cccnc1)N1CCN(CCc2ccccc2)CC1` (stereo not shown) [Example 5, 1-((1-methyl-1H-pyrazol-5-yl)(pyridin-3-yl)methyl)-4-phenethylpiperazine], for which the “μ and σ1 dual binding” value is on record as “++”.

Turning to `Cn1nccc1C(c1ccccc1)N1CCN(CCc2ccccc2F)CC1` (stereo not shown) [Example 22, 1-(2-fluorophenethyl)-4-((1-methyl-1H-pyrazol-5-yl)(phenyl)methyl)piperazine], the Ki is less than 100 nM.

With `Cn1nccc1C(c1cnccc1C(F)(F)F)N1CCN(CCc2ccccc2)CC1` (stereo not shown) [Example 19, 1-((1-methyl-1H-pyrazol-5-yl)(4-(trifluoromethyl)pyridin-3-yl)methyl)-4-phenethylpiperazine], the “μ and σ1 dual binding” value was “++”.

For the compound `Cn1nccc1C(c1ncccc1F)N1CCN(CCc2ccccc2)CC1` (stereo not shown) [Example 16, 1-((3-fluoropyridin-2-yl)(1-methyl-1H-pyrazol-5-yl)methyl)-4-phenethylpiperazine], the “μ and σ1 dual binding” value was “++”.

Consider `Cn1nccc1C(c1ccc(C(F)(F)F)cn1)N1CCN(CCc2ccccc2)CC1` (stereo not shown) [Example 14, 1-((1-methyl-1H-pyrazol-5-yl)(5-(trifluoromethyl)pyridin-2-yl)methyl)-4-phenethylpiperazine], for which the “μ and σ1 dual binding” value was “++”.

`Cn1nccc1C(c1ccc(F)cn1)N1CCN(CCc2cccc(F)c2)CC1` (stereo not shown) [Example 38, 1-(3-fluorophenethyl)-4-((5-fluoropyridin-2-yl)(1-methyl-1H-pyrazol-5-yl)methyl)piperazine] returned a Ki of less than 500 nM.

On to `COc1cccc(CCN2CCN(C(c3ccc(F)cn3)c3ccnn3C)CC2)c1` (stereo not shown) [Example 27, 1-((5-fluoropyridin-2-yl)(1-methyl-1H-pyrazol-5-yl)methyl)-4-(3-methoxyphenethyl)piperazine], for which the “μ and σ1 dual binding” value is “++”.

Staying with this assay, now noted: one combined class for Ki-μ and Ki-σ1.
Turning to `Cn1nccc1C(c1ccccc1)N1CCN(CCc2cccc(C(F)(F)F)n2)CC1` (stereo not shown) [Example 42, 1-((1-methyl-1H-pyrazol-5-yl)(phenyl)methyl)-4-(2-(6-(trifluoromethyl)pyridin-2-yl)ethyl)piperazine], the Ki is no less than 500 nM.

For the compound `Cn1nccc1C(c1ccccc1)N1CCN(CCc2ccc(C(F)(F)F)nc2)CC1` (stereo not shown) [Example 24, 1-((1-methyl-1H-pyrazol-5-yl)(phenyl)methyl)-4-(2-(6-(trifluoromethyl)pyridin-3-yl)ethyl)piperazine], the Ki is no less than 500 nM.

For `Cn1nccc1C(c1ccccc1)N1CCN(CCc2csc(N)n2)CC1` (stereo not shown) [Example 32, 4-(2-(4-((1-Methyl-1H-pyrazol-5-yl)(phenyl)methyl)piperazin-1-yl)ethyl)thiazol-2-amine], the Ki is no less than 500 nM.

Take `Cn1nccc1C(c1ccccc1)N1CCN(CCc2cccnc2)CC1` (stereo not shown) [Example 36, 1-((1-methyl-1H-pyrazol-5-yl)(phenyl)methyl)-4-(2-(pyridin-3-yl)ethyl)piperazine]: the Ki was no less than 500 nM.

The record behind these values is patent US10189828B2, “1-methylpyrazole-piperazine compounds having multimodal activity against pain” (LABORATORIOS DEL DR. ESTEVE S.A., priority 2014, dated 2019).
